We go through 22 compounds from ChEMBL document CHEMBL1149550, “5(Z)-benzylidene-1,2-dihydro-9-hydroxy-10-methoxy-2,2,4-trimethyl-5H-1-aza-6-oxa-chrysenes as non-steroidal glucocorticoid receptor modulators” (Bioorg Med Chem Lett, 2007).

Structures are written as SMILES. pEC50, pIC50, pKi: −log10 of the molar value.

Experiment [1] concerns the target T1, Glucocorticoid receptor (Homo sapiens, UniProt P04150).
T1 sequence (P04150 whole entry): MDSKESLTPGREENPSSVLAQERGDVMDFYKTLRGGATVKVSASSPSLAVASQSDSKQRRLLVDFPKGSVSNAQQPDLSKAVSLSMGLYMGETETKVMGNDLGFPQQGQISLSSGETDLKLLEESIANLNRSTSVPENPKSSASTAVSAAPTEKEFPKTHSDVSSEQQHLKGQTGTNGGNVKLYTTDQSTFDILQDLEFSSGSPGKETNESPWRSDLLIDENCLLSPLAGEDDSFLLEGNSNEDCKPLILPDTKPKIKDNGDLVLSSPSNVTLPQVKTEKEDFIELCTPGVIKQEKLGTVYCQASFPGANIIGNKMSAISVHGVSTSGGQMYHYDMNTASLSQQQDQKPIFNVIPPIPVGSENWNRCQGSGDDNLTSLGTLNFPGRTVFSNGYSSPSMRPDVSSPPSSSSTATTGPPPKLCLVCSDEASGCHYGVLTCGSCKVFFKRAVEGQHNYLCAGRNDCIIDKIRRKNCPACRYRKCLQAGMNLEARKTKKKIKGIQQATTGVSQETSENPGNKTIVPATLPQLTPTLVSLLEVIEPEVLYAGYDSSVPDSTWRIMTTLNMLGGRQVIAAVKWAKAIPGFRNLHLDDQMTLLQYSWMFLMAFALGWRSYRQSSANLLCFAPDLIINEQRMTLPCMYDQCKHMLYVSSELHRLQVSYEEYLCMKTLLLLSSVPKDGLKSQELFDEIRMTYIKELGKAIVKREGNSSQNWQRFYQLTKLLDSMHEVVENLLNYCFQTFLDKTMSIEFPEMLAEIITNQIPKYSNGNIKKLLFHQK
In kind it is functional.
Description: Agonist activity at GR by GRE activation assay

For experiment [2], the target named is T1, Glucocorticoid receptor. The format is functional. This is another data set of the same source.
Description: Antagonist activity at GR assessed as inhibition of dexamethasone-induced GRE activation
Experiment [3] concerns the target T1, Glucocorticoid receptor. In kind it is functional. This is another data set of the same source.
Description: Activity at GR assessed as repression of TNFalpha and IL 1-beta induced E-selectin response
Experiment [4] deals with T1, Glucocorticoid receptor.
Description: Displacement of radiolabeled Dexamethasone from glucocorticoid receptor
In experiment [5] the target is T1, Glucocorticoid receptor. The source holds these as a separate data set.
Description: Agonist activity at GR by GRE activation assay relative to Dexamethasone
In experiment [6] the target is T2, Progesterone receptor (Homo sapiens, UniProt P06401).
T2 sequence (P06401 whole entry): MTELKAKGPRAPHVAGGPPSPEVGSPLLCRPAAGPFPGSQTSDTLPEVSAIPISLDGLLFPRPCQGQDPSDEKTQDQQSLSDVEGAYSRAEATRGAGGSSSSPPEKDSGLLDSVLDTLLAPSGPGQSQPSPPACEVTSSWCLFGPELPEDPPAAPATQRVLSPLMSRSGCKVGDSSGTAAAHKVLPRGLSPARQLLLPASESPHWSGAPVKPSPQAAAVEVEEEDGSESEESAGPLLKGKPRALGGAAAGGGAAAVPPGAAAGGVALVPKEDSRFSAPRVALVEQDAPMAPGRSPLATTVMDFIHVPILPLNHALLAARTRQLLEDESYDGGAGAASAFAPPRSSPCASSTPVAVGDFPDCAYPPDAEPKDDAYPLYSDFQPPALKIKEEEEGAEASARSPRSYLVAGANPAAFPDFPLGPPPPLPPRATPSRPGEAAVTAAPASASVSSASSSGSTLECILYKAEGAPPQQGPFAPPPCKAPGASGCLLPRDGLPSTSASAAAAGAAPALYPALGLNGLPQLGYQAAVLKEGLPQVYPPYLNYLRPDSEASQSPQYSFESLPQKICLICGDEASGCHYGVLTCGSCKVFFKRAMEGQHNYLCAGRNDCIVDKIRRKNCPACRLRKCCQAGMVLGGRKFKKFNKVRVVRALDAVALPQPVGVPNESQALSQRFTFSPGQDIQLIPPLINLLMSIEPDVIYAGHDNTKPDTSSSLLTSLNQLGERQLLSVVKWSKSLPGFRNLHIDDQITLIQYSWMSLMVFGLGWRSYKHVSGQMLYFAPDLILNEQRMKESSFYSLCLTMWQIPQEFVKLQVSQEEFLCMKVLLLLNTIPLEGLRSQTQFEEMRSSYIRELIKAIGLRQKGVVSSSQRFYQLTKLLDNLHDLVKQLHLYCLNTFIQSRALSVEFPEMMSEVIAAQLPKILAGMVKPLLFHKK
Briefly: Binding affinity at PR.

In experiment [7] the target is T3, Androgen receptor (Homo sapiens, UniProt P10275).
T3 sequence (P10275 whole entry): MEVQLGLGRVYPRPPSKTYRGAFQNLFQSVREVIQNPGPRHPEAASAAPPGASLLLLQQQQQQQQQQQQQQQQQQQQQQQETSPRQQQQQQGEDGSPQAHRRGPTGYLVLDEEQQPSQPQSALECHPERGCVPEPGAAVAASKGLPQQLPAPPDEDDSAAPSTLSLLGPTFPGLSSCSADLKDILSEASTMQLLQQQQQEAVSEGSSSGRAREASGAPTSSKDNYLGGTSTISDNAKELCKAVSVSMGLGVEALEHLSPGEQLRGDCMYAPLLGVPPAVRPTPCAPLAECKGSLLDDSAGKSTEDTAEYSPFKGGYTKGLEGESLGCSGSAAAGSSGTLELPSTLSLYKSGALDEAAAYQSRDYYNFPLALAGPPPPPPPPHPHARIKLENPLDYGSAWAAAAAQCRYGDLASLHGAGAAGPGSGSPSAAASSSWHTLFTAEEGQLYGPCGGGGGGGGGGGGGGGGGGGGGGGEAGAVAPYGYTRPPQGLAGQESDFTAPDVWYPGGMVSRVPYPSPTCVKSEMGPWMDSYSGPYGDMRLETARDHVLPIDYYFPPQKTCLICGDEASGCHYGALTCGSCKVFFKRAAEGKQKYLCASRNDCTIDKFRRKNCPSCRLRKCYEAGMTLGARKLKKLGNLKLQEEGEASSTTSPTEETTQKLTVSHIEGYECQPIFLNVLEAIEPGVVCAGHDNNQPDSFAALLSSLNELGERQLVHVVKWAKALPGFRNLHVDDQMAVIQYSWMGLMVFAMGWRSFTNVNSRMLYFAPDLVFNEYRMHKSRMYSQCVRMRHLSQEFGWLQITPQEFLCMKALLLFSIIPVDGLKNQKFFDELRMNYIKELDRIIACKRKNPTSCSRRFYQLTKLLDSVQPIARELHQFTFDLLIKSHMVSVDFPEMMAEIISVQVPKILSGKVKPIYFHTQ
Nature of the experiment: Binding affinity at AR.

Broadly, the pEC50 is the EC50 on a negative log10 scale, so that one unit is a factor of ten. High values mean a low EC50, low ones a high EC50. In general, pIC50 refers to −log10 of the IC50, conventionally taken in molar units. As a reminder, the pKi is −log10 of the Ki, conventionally taken in molar units. Read a high pKi as a low Ki. For the compound `COc1c(O)ccc2c1-c1ccc3c(c1/C(=C/c1ccccc1C)O2)C(C)=CC(C)(C)N3`, the pEC50 in experiment [1] is 8.47. In addition, the negative-log IC50 (pIC50) in experiment [2] is 9.40; in experiment [3] it was 9.00. The negative-log Ki (pKi) in experiment [4] is 8.77.

With `COc1c(O)ccc2c1-c1ccc3c(c1/C(=C/c1ccc(C)cc1)O2)C(C)=CC(C)(C)N3`, the pEC50 in experiment [1] was 7.42. Further, the values for the pIC50 in experiment [2] and in experiment [3] were 7.92 and 7.82, respectively. Also, the negative logarithm of the Ki (pKi) in experiment [4] was 8.72.

In the case of `COc1c(O)ccc2c1-c1ccc3c(c1/C(=C/c1cccc(Oc4ccccc4)c1)O2)C(C)=CC(C)(C)N3`, the pEC50 in experiment [1] and in experiment [5] was under 6.00 throughout. The negative-log IC50 (pIC50) was 8.72 in experiment [2] and 7.13 in experiment [3]. This compound showed a pKi in experiment [4] of 8.34.

For the compound `COc1c(O)ccc2c1-c1ccc3c(c1/C(=C/c1ccc(OC(F)(F)F)cc1)O2)C(C)=CC(C)(C)N3`, the pEC50 in experiment [1] and in experiment [2] was under 6.00 in each case. In addition, the negative-log IC50 (pIC50) in experiment [3] was 7.04. This compound also showed a pKi in experiment [4] of 8.37.

In experiment [1], `COc1c(O)ccc2c1-c1ccc3c(c1/C(=C/c1ccccc1-c1ccccc1)O2)C(C)=CC(C)(C)N3` gave a negative logarithm of the EC50 (pEC50) of 8.35. Besides, the figures for the negative logarithm of the IC50 (pIC50) in experiment [2] and in experiment [3] were 8.44 and 8.36, respectively. The negative-log Ki (pKi) in experiment [4] is 8.17.

In turn, `COc1c(O)ccc2c1-c1ccc3c(c1/C(=C/c1ccccc1Cl)O2)C(C)=CC(C)(C)N3` gave a negative-log EC50 (pEC50) in experiment [1] of 7.74. The negative logarithm of the IC50 (pIC50) was 7.62 in experiment [2] and 7.74 in experiment [3]. For the same compound, the pKi in experiment [4] was 7.82.

For the compound `COc1c(O)ccc2c1-c1ccc3c(c1/C(=C/c1ccc(-c4ccccc4)cc1)O2)C(C)=CC(C)(C)N3`, the figures for the pEC50 in experiment [1] and in experiment [2] were 7.48 and under 6.00, respectively. Further, in experiment [3], the negative-log IC50 (pIC50) is 7.11. For the same compound, the negative logarithm of the Ki (pKi) in experiment [4] is 8.36.

In experiment [1], `COc1c(O)ccc2c1-c1ccc3c(c1/C(=C/c1ccc(Cl)cc1)O2)C(C)=CC(C)(C)N3` showed a pEC50 of 7.37. Moreover, the pIC50 was under 6.00 in experiment [2] and 7.92 in experiment [3]. This compound showed a negative logarithm of the Ki (pKi) in experiment [4] of 8.77.

In the case of `CCc1ccc(/C=C2\Oc3ccc(O)c(OC)c3-c3ccc4c(c32)C(C)=CC(C)(C)N4)cc1`, the pEC50 was 6.68 in experiment [1] and under 6.00 in experiment [2].

Regarding `COc1c(O)ccc2c1-c1ccc3c(c1/C(=C/c1ccc(C(C)C)cc1)O2)C(C)=CC(C)(C)N3`, the negative-log EC50 (pEC50) in experiment [1] was 6.34; in experiment [2] it was under 6.00. This compound also showed a negative logarithm of the Ki (pKi) in experiment [4] of 8.54.

Turning to `COc1c(O)ccc2c1-c1ccc3c(c1/C(=C/c1cccc(-c4ccsc4)c1)O2)C(C)=CC(C)(C)N3`, the pEC50 in experiment [1] and in experiment [5] was under 6.00 throughout. The pIC50 in experiment [2] was 9.30; in experiment [3], 8.85. The compound also had a negative-log Ki (pKi) in experiment [4] of 8.51.

As to `COc1c(O)ccc2c1-c1ccc3c(c1/C(=C/c1cccc(C)c1)O2)C(C)=CC(C)(C)N3`, the negative logarithm of the Ki (pKi) in experiment [6] is 6.40; in experiment [7], 6.24.

Regarding `COc1c(O)ccc2c1-c1ccc3c(c1/C(=C/c1cccc(-c4cccnc4)c1)O2)C(C)=CC(C)(C)N3`, the pEC50 in experiment [1] and in experiment [5] was under 6.00 throughout. The pIC50 in experiment [2] is 9.15; in experiment [3], 8.44. The compound also gave a negative logarithm of the Ki (pKi) in experiment [4] of 8.82.

Take `COc1c(O)ccc2c1-c1ccc3c(c1/C(=C/c1cccc(C(F)(F)F)c1C)O2)C(C)=CC(C)(C)N3`: the negative logarithm of the IC50 (pIC50) was 8.59 in experiment [2] and 7.82 in experiment [3]. Besides, the pKi in experiment [4] is 8.59.

In turn, `COc1c(O)ccc2c1-c1ccc3c(c1/C(=C/c1ccccc1F)O2)C(C)=CC(C)(C)N3` showed a negative logarithm of the EC50 (pEC50) in experiment [1] of 9.22. Also, the results for the negative logarithm of the IC50 (pIC50) in experiment [2] and in experiment [3] were 8.89 and 8.85, respectively. In experiment [4], this compound gave a negative logarithm of the Ki (pKi) of 9.10.

With `COc1ccc(/C=C2\Oc3ccc(O)c(OC)c3-c3ccc4c(c32)C(C)=CC(C)(C)N4)cc1`, the negative-log EC50 (pEC50) in experiment [1] was 6.88; in experiment [2], under 6.00. Besides, the pIC50 in experiment [3] was 8.00. In experiment [4], this compound showed a pKi of 8.57.

With `COc1c(O)ccc2c1-c1ccc3c(c1/C(=C/c1ccc(O)cc1)O2)C(C)=CC(C)(C)N3`, the negative-log EC50 (pEC50) in experiment [1] is 8.96. Moreover, the negative-log IC50 (pIC50) in experiment [2] is 9.40; in experiment [3] it was 9.00. Further, the negative logarithm of the Ki (pKi) in experiment [4] is 8.96.

With `COc1c(O)ccc2c1-c1ccc3c(c1/C(=C/c1cccc(-c4ccccc4)c1)O2)C(C)=CC(C)(C)N3`, the pEC50 in experiment [1] and in experiment [5] was under 6.00 each time. In addition, the pIC50 in experiment [2] was 8.64; in experiment [3], 7.92. Moreover, in experiment [4], the pKi is 8.14.

For `COc1c(O)ccc2c1-c1ccc3c(c1/C(=C/c1cccc(C(F)(F)F)c1)O2)C(C)=CC(C)(C)N3`, the negative logarithm of the EC50 (pEC50) in experiment [1] and in experiment [5] was under 6.00 in each case. For the same compound, the negative-log IC50 (pIC50) in experiment [2] was 8.60; in experiment [3], 8.39. For the same compound, the pKi in experiment [4] is 8.57.

In experiment [1], `COc1c(O)ccc2c1-c1ccc3c(c1/C(=C/c1cccc(C)n1)O2)C(C)=CC(C)(C)N3` gave a pEC50 of 9.15. Further, the pIC50 in experiment [2] is 8.96; in experiment [3], 8.31. The compound also had a negative logarithm of the Ki (pKi) in experiment [4] of 8.80.

As for `COc1c(O)ccc2c1-c1ccc3c(c1/C(=C/c1ccc(F)cc1S(=O)(=O)N1CCCCC1)O2)C(C)=CC(C)(C)N3`, the negative-log EC50 (pEC50) in experiment [1] was 6.97. Moreover, the pIC50 in experiment [2] was 8.18; in experiment [3] it was 7.66. Also, the pKi in experiment [4] is 7.03.

In the case of `COc1c(O)ccc2c1-c1ccc3c(c1/C(=C/c1cccc(OC(F)(F)F)c1)O2)C(C)=CC(C)(C)N3`, the pEC50 in experiment [1] and in experiment [5] was under 6.00 throughout. Moreover, the pIC50 is 8.72 in experiment [2] and 8.33 in experiment [3]. In experiment [4], this compound had a negative-log Ki (pKi) of 8.39.
